According to US9326945B2, “Apixaban formulations” (Bristol-Myers Squibb Company, priority 2010, dated 2016):
≈ marks a conversion by molar mass, not a printed value.

Columns and labels:
[1] = Aqueous solubility of apixaban; type: physicochemical
[2] = Contact angle of apixaban drug substance with water; type: physicochemical

dose/solubility ratio ([1]; 10 mg apixaban dose): 250 mL
solubility ([1]; aqueous medium, at all physiological pH): 40 µg/mL (≈ 87.1 µM)
contact angle [2]: 54 °
Compound: COc1ccc(-n2nc(C(N)=O)c3c2C(=O)N(c2ccc(N4CCCCC4=O)cc2)CC3)cc1 [apixaban, 4,5,6,7-tetrahydro-1-(4-methoxyphenyl)-7-oxo-6-[4-(2-oxo-1-piperidinyl)phenyl]-1H-pyrazolo[3,4-c]pyridine-3-carboxamide]
